Broadly, the AC50 is the concentration at which the activity in the assay is half-maximal. Broadly, the IC50 is the point on the concentration scale where inhibition reaches its midpoint. For orientation: EC50 means the concentration needed to bring the measured effect to its halfway point.

Experimental findings from ChEMBL document CHEMBL1201862, “PubChem BioAssay data set” (2004) are described below.

Activity calls are given as the source filed them.

For experiment [1], the target named is T1, Cytochrome P450 1A2 (Homo sapiens, UniProt P05177).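 Also: PubChem cytochrome P450 panel assay, CYP1A2 panel member.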
T1 sequence (P05177 whole entry): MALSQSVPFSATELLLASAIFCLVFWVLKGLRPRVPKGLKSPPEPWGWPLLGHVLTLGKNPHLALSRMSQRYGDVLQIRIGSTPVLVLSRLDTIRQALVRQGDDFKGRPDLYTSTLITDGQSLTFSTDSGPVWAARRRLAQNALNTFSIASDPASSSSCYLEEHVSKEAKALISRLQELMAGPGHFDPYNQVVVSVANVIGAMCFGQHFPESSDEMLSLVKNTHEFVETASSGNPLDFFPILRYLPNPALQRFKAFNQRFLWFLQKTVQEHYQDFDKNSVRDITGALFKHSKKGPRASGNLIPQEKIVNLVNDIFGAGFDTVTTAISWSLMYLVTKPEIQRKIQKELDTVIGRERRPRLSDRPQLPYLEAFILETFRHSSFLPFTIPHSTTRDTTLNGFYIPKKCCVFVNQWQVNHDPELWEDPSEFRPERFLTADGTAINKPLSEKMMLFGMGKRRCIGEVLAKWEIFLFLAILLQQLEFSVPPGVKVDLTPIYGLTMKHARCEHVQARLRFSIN

Experiment [2] has as its target T2, Mannose-6-phosphate isomerase (Homo sapiens, UniProt P34949).
T2 sequence (P34949 whole entry): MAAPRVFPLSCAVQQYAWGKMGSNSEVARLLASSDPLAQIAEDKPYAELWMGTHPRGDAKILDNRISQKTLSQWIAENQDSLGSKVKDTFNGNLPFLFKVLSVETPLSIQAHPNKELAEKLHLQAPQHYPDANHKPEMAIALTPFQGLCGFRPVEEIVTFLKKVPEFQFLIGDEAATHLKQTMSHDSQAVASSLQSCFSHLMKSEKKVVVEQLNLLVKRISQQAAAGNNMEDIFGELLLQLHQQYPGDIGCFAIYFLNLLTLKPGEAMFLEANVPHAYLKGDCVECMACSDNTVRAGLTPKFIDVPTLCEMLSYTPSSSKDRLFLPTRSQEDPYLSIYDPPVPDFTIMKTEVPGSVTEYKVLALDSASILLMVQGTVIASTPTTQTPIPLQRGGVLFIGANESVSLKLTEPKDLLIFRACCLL
Nature of the experiment: MPI inhibition at elevated mannose 6-phosphate – biochemical, fluorescence intensity, high mannose 6-phosphate, primary screen (AID 1220).

Experiment [3] deals with Melanin-concentrating hormone receptor 1 (Homo sapiens, UniProt Q99705). Nature of the experiment: Fluorescence-based counterscreen for antagonists of the G-protein coupled receptor 7 (GPR7): cell-based high throughput dose response assay to identify antagonists of the melanin-concentrating hormone receptor 1 (MCHR1). It is filed as functional. Background: The purpose of a counterscreen is to sort out artefacts and off-target activity.

The target in experiment [4] is T3, Neuropeptides B/W receptor type 1 (Homo sapiens, UniProt P48145).
T3 sequence (P48145 whole entry): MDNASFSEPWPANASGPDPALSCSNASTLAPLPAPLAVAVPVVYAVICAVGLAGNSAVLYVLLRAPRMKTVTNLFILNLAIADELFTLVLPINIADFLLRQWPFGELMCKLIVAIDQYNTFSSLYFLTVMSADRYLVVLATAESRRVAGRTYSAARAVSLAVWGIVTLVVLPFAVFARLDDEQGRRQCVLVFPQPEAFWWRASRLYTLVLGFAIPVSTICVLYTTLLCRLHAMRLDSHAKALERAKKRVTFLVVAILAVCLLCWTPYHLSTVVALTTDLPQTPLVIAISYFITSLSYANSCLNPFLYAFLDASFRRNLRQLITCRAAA
Nature of the experiment: Fluorescence-based dose response cell-based high throughput screening assay to identify antagonists of the G-protein coupled receptor 7 (GPR7). [Related pubchem assays: 1952 (Screening assay (GPR7 antagonists).), 1880 (Summary AID.)]. Type of experiment: functional.

The target in experiment [5] is T4, Estrogen receptor beta (Homo sapiens, UniProt Q92731).
The target in experiment [6] is T5, Rac GTPase-activating protein 1 (Homo sapiens, UniProt Q9H0H5).
T5 sequence (Q9H0H5 whole entry): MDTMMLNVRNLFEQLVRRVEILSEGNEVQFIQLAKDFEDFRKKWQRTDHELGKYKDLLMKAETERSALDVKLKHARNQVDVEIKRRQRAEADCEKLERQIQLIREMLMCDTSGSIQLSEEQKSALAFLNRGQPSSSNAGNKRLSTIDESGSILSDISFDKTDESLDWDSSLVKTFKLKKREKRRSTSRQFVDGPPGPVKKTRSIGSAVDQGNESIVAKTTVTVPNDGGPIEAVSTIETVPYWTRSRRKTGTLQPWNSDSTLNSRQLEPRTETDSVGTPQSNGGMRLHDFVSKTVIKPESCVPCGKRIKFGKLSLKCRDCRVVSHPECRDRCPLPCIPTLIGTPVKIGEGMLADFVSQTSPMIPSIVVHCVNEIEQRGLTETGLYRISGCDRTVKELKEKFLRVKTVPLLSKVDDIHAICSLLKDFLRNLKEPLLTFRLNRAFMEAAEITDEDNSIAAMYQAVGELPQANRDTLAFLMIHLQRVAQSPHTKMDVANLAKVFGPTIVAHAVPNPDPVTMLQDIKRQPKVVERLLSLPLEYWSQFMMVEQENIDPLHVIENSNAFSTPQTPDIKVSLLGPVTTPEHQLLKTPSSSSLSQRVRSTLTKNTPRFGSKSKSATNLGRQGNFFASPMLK
Nature of the experiment: blockers of MgcRacGAP-driven Rac1 GTP hydrolysis – biochemical, ADP Hunter fluorescence, primary and confirmatory, confirmation (AID 624330). It is filed as functional.

The target in experiment [7] is T6, Sentrin-specific protease 8 (Homo sapiens, UniProt Q96LD8).
T6 sequence (Q96LD8 whole entry): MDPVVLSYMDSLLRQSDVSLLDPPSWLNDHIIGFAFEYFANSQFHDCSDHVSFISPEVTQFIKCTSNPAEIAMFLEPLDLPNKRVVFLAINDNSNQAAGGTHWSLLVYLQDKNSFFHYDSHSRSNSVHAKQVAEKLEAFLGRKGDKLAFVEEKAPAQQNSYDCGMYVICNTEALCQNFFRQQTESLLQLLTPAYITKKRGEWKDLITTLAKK
It is filed as functional.

Experiment [8] deals with Large T antigen (Simian virus 40, UniProt P03070). Type of experiment: functional, Betapolyomavirus macacae.
The target in experiment [9] is T6, Sentrin-specific protease 8. Type of experiment: functional. The source holds these as a separate data set.
Experiment [10] deals with T4, Estrogen receptor beta. The experiment is described as follows: blockers of SRC-3 recruitment to ERβ – biochemical, ELISA, streptavidin-HRP readout, orthogonal assay, confirmation (AID 1060). For orientation: In an ELISA, binding on a coated surface is turned into a signal by an enzyme label.
The nature of experiment [11]: Luminescence Cell-Based Dose Response to Identify Activators of 5'UTR Stem-Loop Driven Prion Protein mRNA Translation in H4-C Neuroglioblastoma Cells. [Related pubchem assays: 1829 (Project Summary), 1814 (Primary HTS)]. It is filed as functional.
Experiment [12] concerns BJ. The experiment is described as follows: BJ-TERT fibroblast viability loss – cell-based, RAS-independent, luminescence, dose response (AID 1933). It is filed as functional. The conditions noted are these: Homo sapiens.
A short description of experiment [13]: Luminescence Cell-Based Dose Response HTS to Identify Activators of Luciferase Translation or Activity in H4 […] Cells. [Related pubchem assays: 1829 (Project Summary), 1814 (Primary HTS)]. Type of experiment: functional.
Experiment [14] deals with BJ. The experiment is described as follows: cells. Particulars: Homo sapiens. It is filed as functional, cell-based.
Experiment [15] is described as follows: Luminescence Cell-Based Dose Confirmation HTS to Identify Activators of 5'UTR Stem-Loop Driven Alpha-Synuclein mRNA Translation in H4 Neuroglioblastoma Cells. [Related pubchem assays: 1829 (Project Summary), 1814 (Primary HTS)]. Type of experiment: functional.
Experiment [16] in a line: Luminescence Cell-Based Dose Confirmation to Identify Activators of 5'UTR Stem-Loop Driven Alpha-Synuclein mRNA Translation in H4 Neuroglioblastoma Cells. [Related pubchem assays: 1829 (Project Summary), 1814 (Primary HTS)]. It is filed as functional.
Experiment [17] in a line: DRD fibroblast viability loss – cell-based, non-viral oncogenic, luminescence, dose response (AID 1934). Type of experiment: functional. Particulars: Homo sapiens.
The subject of experiment [18] is H4. The experiment is described as follows: Luminescence Cell-Based Dose Response HTS to Identify Activators of 5'UTR Stem-Loop Driven Prion Protein mRNA Translation in H4 Neuroglioblastoma Cells. [Related pubchem assays: 1829 (Project Summary), 1814 (Primary HTS)]. Type of experiment: functional. Particulars: Homo sapiens.
In experiment [19] the test system is BJ. The experiment is described as follows: BJ-TERT-LT-ST fibroblast viability loss – cell-based, RAS-independent, luminescence, dose response (AID 1935).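 Also: BJ fibroblasts immortalized with TERT plus LT and ST oncogenes.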 It is filed as functional. Particulars: Homo sapiens.
Experiment [20] is described as follows: Luminescence Cell-Based Dose Response to Identify Activators of Luciferase Translation or Activity in H4-C Neuroglioblastoma Cells. [Related pubchem assays: 1829 (Project Summary), 1814 (Primary HTS)]. Type of experiment: functional.
Experiment [21] has as its target E3 ubiquitin-protein ligase Mdm2 (Homo sapiens, UniProt Q00987). The experiment is described as follows: MDM2-luc reporter signal enhancers, multi-concentration potency testing, MDM2 ubiquitin-protein ligase inhibitor program, whole-cell format, luminescence detection, 384-well microplate (AID 1394).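 Also: MDM2 E3 inhibitors raise luminescence so EC50 is for signal enhancement.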 It is filed as functional.
The target in experiment [22] is Ephrin type-A receptor 4 (Mus musculus, UniProt Q03137). Nature of the experiment: EphA4 ligand-binding antagonists – biochemical, colorimetric, mouse EphA4, primary screen (AID 689). It is filed as functional.
Ephrin type-A receptor 4, sequence (Q03137 whole entry): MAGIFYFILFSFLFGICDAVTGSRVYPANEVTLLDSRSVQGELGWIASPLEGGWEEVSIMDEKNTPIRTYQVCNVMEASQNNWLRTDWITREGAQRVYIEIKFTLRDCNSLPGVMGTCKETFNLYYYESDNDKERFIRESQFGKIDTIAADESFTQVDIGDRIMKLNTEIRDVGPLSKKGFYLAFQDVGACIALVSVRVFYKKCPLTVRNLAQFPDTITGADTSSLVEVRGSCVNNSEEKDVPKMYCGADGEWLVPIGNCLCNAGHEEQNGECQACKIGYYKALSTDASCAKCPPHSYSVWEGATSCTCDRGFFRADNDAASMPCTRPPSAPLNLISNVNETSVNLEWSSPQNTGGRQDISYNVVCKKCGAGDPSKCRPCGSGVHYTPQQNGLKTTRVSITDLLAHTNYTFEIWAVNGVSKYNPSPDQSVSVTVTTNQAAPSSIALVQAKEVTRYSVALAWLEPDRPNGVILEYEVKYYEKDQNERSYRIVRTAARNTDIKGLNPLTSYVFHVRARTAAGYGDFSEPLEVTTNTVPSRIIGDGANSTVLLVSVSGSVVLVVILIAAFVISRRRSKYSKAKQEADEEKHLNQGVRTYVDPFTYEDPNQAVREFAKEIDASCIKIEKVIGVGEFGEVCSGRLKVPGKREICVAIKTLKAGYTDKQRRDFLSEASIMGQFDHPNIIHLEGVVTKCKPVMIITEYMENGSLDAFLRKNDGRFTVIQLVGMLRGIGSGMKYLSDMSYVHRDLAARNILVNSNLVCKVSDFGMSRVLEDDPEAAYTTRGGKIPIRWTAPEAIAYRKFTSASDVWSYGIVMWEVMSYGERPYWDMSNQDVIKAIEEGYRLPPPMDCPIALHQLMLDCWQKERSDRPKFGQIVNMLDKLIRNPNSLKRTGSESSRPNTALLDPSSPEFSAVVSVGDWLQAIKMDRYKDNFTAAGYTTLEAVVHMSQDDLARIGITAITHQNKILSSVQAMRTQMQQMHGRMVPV

Melanin-concentrating hormone receptor 1, sequence (Q99705 whole entry): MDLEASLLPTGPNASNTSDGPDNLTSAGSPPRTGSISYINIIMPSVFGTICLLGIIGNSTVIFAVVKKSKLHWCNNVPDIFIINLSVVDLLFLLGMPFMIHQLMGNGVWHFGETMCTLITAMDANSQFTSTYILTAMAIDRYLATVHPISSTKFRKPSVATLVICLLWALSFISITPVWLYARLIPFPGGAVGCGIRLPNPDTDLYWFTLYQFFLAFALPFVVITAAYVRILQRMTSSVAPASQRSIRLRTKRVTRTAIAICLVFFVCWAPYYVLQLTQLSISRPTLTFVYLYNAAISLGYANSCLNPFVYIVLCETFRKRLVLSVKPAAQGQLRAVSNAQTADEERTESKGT
E3 ubiquitin-protein ligase Mdm2, sequence (Q00987 whole entry): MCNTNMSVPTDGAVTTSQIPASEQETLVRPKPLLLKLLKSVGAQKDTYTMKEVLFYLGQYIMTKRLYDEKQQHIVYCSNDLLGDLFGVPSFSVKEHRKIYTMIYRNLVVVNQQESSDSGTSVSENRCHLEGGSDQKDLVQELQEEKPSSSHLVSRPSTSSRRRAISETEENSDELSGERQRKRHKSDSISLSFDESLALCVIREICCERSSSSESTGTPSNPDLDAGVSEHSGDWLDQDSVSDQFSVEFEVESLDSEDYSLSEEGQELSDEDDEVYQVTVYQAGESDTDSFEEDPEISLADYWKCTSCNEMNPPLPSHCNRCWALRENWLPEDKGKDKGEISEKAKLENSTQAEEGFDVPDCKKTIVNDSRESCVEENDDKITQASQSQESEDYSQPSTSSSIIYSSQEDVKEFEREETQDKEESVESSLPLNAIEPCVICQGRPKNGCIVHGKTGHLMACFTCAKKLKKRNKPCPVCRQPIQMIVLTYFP
T4 sequence (Q92731 whole entry): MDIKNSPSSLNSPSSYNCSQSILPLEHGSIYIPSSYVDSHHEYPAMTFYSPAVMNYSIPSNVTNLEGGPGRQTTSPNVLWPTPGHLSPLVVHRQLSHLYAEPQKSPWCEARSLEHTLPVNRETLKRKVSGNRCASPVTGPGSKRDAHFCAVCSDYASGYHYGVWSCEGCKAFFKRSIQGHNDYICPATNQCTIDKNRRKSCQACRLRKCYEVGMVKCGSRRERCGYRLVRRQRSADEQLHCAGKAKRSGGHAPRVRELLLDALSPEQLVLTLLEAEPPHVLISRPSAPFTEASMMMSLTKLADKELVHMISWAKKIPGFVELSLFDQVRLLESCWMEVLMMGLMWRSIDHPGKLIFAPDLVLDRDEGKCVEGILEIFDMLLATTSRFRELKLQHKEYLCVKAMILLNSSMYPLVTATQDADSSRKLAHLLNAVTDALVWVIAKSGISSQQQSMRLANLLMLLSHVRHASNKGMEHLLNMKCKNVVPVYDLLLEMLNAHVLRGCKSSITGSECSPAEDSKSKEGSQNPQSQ
Large T antigen, sequence (P03070 whole entry): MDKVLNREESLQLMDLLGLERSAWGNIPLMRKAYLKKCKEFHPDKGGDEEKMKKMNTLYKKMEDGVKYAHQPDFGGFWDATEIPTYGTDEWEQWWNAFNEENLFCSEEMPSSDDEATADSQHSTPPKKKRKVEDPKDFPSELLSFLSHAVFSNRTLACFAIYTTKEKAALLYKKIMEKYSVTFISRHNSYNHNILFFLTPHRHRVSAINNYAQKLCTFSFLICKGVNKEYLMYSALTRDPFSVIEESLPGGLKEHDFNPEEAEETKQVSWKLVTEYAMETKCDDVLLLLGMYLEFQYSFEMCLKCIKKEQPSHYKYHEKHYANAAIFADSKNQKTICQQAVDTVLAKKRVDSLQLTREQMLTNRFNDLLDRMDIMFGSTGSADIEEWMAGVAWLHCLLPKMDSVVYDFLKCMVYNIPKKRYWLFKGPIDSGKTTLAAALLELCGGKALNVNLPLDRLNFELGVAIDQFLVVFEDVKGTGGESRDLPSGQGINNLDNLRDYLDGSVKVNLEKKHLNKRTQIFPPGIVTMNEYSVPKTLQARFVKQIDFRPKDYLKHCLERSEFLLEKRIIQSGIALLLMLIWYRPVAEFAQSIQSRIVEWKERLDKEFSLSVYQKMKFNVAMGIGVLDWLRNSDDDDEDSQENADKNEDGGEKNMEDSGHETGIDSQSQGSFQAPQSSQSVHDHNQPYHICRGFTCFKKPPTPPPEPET

With `Brc1c(NC2=NCCN2)ccc2nccnc12` [BRIMONIDINE], the AC50 in experiment [1] was 39.8 µM (inconclusive). Moreover, in experiment [2], the IC50 is > 50 µM (not active).
For `COc1ccc(C(CNC(=O)COc2ccc(Cl)c(C)c2)N2CCCCC2)cc1` (configuration not stated), the IC50 was 11.3 µM (not active) in [3] and > 4.87 µM (active) in experiment [4].
On to `O=C(Nc1ccc(O)cc1)C1CC=CCC1` (configuration not stated), for which the IC50 is 3.2 µM (active) in experiment [5]; 40.7 µM (active) in experiment [6]; 25.1 µM (active) in experiment [7]; 16.4 µM (active) in [8]; 19.1 µM (active) in [9]; 124 nM (not active) in experiment [10].
For `N#CC1=C(SCC(=O)c2ccccc2)N=C2CCCC(O)=C2C1c1ccco1` (configuration not stated), the EC50 in experiment [11] is 1.22 µM (active); in experiment [12], 2.85 µM (active); in experiment [13] it was < 100 nM (active); in experiment [14], 42.1 µM (inconclusive); in [15] it was > 120 µM (not active); in [16], 464 nM (active). For the same molecule, the EC50 is 19.3 µM (inconclusive) in experiment [17], > 120 µM (not active) in experiment [18], 18.9 µM (active) in experiment [19] and 395 nM (active) in experiment [20].
On to `C=CCN(c1cccc(C(F)(F)F)c1)S(=O)(=O)c1cccc(C(=O)OCC(=O)NCCC)c1`, for which the EC50 in [21] was 277 µM (not active).
As to `CCOc1ccc([N+](=O)[O-])cc1CNC1CCCCCCC1`, the results for the IC50 in [3] and in [4] were 12.6 µM (not active) and 27.3 µM (not active), respectively.
As for `O=C(NC1CCCCC1)C(c1cccnc1)N(C(=O)c1ccc(Cl)nc1)C1CCCCC1` (configuration not stated), in [21], the EC50 is 12.7 µM (not active).
For the molecule `CCn1c(COc2ccccc2C)nnc1SCC(=O)Nc1cc(C)on1`, in experiment [22], the IC50 was > 100 µM (not active).
`COc1ccc(C2CC2/C(=N/O)c2ccccn2)cc1` (configuration not stated): the 50% inhibitory concentration (IC50) in [3] and in [4] was > 43.8 µM (not active) in each case.
